What was measured:
[1] = target: Serine/threonine-protein kinase 17B (Homo sapiens) (UniProt O94768)
[2] = target: Mu-type opioid receptor (Homo sapiens) (UniProt P35372); settings: Compound concentration 10.0 uM
[3] = target: Dual specificity tyrosine-phosphorylation-regulated kinase 1B (Homo sapiens) (UniProt Q9Y463)
[4] = target: T1, Activin receptor type-1B (Homo sapiens) (UniProt P36896)
T1 sequence (whole entry): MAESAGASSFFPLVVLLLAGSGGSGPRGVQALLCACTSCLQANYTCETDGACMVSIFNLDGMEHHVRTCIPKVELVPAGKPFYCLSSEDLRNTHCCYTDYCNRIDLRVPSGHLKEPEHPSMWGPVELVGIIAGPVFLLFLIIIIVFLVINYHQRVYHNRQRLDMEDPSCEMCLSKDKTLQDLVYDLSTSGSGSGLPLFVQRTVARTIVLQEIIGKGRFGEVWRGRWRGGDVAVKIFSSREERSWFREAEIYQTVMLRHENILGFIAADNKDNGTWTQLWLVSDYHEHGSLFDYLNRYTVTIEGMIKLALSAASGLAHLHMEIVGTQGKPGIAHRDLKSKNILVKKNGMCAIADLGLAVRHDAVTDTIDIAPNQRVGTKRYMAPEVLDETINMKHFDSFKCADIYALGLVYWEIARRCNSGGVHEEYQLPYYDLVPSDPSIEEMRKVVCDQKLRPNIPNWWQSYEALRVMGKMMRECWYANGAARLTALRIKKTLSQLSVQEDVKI

[5] = target: Tyrosine-protein kinase receptor Tie-1 (Homo sapiens) (UniProt P35590)
[6] = system: Epidermal growth factor receptor (Homo sapiens), P00533 [UNDEFINED MUTATION]
[7] = target: Cyclin-dependent kinase 11B (Homo sapiens) (UniProt P21127)
[8] = target: Tyrosine-protein kinase BTK (Homo sapiens) (UniProt Q06187)
[9] = target: Ribosomal protein S6 kinase alpha-1 (Homo sapiens) (UniProt Q15418)
[10] = target: Serine/threonine-protein kinase LATS1 (Homo sapiens) (UniProt O95835)
[11] = system: Epidermal growth factor receptor (Homo sapiens), P00533 [UNDEFINED MUTATION]; remark: listed apart in the source
[12] = target: Serine/threonine-protein kinase MRCK alpha (Homo sapiens) (UniProt Q5VT25)
[13] = target: Serine/threonine-protein kinase RIO2 (Homo sapiens) (UniProt Q9BVS4)
[14] = target: T2, Tyrosine-protein kinase JAK3 (Homo sapiens) (UniProt P52333)
T2 sequence (whole entry): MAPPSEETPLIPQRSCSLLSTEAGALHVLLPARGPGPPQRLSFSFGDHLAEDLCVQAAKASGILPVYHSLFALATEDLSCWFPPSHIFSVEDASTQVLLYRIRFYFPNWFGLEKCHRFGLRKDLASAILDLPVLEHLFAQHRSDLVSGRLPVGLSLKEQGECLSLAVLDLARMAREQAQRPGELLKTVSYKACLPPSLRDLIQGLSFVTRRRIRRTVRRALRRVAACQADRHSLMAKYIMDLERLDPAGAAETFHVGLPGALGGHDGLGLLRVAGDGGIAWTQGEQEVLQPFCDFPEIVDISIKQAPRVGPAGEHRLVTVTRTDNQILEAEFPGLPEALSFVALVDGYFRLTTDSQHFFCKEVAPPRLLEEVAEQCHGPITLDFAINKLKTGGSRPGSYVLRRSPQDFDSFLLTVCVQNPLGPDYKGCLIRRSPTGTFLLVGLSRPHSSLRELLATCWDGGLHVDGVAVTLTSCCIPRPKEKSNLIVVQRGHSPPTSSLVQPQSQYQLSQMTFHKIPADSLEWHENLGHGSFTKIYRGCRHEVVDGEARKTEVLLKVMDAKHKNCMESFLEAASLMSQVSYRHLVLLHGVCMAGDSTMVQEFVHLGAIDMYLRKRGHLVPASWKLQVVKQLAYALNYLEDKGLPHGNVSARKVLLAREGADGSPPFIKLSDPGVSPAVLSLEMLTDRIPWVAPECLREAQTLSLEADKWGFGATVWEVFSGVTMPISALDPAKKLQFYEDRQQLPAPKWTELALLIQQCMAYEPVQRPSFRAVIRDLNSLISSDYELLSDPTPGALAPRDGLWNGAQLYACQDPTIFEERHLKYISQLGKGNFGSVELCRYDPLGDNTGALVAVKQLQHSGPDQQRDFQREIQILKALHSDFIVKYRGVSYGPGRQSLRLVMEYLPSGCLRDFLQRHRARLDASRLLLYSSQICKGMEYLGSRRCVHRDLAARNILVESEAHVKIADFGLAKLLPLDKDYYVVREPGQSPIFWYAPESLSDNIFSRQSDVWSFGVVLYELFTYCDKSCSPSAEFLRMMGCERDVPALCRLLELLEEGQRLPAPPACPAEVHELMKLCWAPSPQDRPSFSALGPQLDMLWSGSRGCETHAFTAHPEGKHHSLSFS

[15] = target: Mitogen-activated protein kinase kinase kinase 10 (Homo sapiens) (UniProt Q02779); assay: MAP3K10 (MLK2) Kinase screen; settings: Compound concentration 1.0 uM
[16] = target: Endothelin-1 receptor (Homo sapiens) (UniProt P25101); settings: Compound concentration 10.0 uM
[17] = target: Cyclin-dependent kinase 5/CDK5 activator 1 (Homo sapiens) (UniProt Q00535+Q15078); assay: CDK5/p25 Kinase screen; type: protein-complex assay; settings: Compound concentration 1.0 uM
[18] = target: B2 bradykinin receptor (Homo sapiens) (UniProt P30411); settings: Compound concentration 10.0 uM
[19] = target: Proto-oncogene tyrosine-protein kinase ROS (Homo sapiens) (UniProt P08922); assay: ROS1 Kinase screen; settings: Compound concentration 1.0 uM
Rattus norvegicus = species on record: Rattus norvegicus; assay: Glutamate, NMDA, Polyamine Eurofins-Panlabs radioligand binding assay; type: protein-complex assay; parameters: ligand concentration 2 nM; settings: Compound concentration 10.0 uM
[20] = Compound concentration 1000.0 nM
[21] = Compound concentration 100.0 nM

Sequence of Epidermal growth factor receptor (Homo sapiens), P00533 [UNDEFINED MUTATION] (P00533 whole entry, looked up, change not shown): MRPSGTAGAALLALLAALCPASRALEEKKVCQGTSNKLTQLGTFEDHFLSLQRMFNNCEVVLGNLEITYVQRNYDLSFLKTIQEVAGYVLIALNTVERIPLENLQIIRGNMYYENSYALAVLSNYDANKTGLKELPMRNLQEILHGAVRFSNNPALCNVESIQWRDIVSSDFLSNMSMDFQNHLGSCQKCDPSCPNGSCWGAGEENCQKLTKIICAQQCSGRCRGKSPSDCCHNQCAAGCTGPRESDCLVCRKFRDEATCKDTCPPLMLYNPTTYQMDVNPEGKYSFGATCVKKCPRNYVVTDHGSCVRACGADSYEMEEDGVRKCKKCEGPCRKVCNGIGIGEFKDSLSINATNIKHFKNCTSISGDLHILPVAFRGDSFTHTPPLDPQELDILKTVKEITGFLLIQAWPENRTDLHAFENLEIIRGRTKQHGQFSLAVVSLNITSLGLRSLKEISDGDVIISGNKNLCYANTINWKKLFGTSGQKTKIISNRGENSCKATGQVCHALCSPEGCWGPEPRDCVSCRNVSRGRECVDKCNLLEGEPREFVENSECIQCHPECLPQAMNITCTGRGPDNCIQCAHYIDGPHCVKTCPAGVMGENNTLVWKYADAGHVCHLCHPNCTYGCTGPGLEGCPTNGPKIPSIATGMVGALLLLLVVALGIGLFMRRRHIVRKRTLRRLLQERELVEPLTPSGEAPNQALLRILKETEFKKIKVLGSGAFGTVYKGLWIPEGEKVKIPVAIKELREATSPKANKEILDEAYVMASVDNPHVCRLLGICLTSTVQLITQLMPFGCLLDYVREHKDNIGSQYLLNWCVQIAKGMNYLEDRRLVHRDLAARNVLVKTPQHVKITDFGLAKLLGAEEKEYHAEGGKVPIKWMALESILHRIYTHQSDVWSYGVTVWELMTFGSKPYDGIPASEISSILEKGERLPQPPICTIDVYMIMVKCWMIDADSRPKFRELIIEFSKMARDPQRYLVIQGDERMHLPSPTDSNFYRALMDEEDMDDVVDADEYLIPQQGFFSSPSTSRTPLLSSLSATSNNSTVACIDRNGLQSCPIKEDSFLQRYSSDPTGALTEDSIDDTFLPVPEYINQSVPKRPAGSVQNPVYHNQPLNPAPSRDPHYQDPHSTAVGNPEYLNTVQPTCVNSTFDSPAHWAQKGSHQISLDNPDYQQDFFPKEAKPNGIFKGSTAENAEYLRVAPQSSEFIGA
Sequence of Dual specificity tyrosine-phosphorylation-regulated kinase 1B (Homo sapiens) (Q9Y463 whole entry, looked up): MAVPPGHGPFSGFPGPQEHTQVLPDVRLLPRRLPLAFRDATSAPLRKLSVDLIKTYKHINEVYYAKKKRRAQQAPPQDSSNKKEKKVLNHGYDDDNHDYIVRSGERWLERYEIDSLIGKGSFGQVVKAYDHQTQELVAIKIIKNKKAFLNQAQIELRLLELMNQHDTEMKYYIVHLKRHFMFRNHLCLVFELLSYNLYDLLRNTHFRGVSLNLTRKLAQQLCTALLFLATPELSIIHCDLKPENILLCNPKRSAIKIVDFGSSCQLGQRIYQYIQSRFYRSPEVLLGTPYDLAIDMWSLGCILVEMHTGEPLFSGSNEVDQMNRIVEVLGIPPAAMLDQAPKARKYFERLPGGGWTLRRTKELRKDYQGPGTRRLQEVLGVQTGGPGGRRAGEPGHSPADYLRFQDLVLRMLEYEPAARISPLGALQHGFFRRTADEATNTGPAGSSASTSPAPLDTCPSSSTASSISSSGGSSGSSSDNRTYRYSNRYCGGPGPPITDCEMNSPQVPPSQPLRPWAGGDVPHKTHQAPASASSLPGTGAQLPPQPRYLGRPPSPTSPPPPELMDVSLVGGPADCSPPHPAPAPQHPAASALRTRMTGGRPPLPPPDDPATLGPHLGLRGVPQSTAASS
Sequence of Serine/threonine-protein kinase RIO2 (Homo sapiens) (Q9BVS4 whole entry, looked up): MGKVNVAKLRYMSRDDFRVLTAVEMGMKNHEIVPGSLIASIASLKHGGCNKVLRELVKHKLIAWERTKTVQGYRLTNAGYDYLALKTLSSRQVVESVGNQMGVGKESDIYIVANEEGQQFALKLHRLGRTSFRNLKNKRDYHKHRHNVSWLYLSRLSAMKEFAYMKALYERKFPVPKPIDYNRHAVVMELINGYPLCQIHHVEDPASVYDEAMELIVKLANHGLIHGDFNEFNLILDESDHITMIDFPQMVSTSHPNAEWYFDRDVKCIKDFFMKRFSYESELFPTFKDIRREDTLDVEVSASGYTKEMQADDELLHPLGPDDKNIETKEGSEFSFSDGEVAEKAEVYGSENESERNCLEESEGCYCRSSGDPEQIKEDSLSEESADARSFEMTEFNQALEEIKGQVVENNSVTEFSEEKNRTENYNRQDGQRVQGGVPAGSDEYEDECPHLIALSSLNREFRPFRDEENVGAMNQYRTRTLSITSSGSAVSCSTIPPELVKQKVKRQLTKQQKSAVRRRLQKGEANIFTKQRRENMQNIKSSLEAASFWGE
Sequence of Serine/threonine-protein kinase 17B (Homo sapiens) (O94768 whole entry): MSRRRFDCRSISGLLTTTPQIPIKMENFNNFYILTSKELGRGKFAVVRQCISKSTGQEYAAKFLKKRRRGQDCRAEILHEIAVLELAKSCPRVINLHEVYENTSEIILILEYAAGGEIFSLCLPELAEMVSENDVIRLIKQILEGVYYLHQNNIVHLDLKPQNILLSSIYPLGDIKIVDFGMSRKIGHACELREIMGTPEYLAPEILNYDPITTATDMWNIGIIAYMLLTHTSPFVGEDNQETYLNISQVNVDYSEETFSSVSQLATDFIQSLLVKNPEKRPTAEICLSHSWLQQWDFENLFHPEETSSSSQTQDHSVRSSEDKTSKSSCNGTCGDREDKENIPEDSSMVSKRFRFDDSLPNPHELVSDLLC
Sequence of Ribosomal protein S6 kinase alpha-1 (Homo sapiens) (Q15418 whole entry): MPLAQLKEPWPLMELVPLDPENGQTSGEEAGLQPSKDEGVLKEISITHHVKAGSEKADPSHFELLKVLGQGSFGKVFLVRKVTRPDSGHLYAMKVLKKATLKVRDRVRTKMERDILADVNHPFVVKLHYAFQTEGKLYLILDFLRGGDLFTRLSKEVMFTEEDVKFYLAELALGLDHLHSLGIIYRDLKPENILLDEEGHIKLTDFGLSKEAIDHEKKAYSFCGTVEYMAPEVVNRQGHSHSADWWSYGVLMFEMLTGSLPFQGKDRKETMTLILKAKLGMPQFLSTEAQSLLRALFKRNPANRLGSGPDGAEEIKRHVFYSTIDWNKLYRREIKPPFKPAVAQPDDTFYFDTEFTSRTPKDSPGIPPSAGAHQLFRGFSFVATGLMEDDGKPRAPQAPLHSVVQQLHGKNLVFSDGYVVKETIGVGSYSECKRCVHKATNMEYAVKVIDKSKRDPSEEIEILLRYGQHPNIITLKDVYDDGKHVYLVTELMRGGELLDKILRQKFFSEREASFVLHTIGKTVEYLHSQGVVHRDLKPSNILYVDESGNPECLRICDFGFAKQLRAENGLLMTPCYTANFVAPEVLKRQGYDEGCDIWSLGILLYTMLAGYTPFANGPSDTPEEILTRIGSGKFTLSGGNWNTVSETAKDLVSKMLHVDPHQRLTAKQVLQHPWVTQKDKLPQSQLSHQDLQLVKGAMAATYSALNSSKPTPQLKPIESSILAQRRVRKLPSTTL
Sequence of Serine/threonine-protein kinase LATS1 (Homo sapiens) (O95835 whole entry): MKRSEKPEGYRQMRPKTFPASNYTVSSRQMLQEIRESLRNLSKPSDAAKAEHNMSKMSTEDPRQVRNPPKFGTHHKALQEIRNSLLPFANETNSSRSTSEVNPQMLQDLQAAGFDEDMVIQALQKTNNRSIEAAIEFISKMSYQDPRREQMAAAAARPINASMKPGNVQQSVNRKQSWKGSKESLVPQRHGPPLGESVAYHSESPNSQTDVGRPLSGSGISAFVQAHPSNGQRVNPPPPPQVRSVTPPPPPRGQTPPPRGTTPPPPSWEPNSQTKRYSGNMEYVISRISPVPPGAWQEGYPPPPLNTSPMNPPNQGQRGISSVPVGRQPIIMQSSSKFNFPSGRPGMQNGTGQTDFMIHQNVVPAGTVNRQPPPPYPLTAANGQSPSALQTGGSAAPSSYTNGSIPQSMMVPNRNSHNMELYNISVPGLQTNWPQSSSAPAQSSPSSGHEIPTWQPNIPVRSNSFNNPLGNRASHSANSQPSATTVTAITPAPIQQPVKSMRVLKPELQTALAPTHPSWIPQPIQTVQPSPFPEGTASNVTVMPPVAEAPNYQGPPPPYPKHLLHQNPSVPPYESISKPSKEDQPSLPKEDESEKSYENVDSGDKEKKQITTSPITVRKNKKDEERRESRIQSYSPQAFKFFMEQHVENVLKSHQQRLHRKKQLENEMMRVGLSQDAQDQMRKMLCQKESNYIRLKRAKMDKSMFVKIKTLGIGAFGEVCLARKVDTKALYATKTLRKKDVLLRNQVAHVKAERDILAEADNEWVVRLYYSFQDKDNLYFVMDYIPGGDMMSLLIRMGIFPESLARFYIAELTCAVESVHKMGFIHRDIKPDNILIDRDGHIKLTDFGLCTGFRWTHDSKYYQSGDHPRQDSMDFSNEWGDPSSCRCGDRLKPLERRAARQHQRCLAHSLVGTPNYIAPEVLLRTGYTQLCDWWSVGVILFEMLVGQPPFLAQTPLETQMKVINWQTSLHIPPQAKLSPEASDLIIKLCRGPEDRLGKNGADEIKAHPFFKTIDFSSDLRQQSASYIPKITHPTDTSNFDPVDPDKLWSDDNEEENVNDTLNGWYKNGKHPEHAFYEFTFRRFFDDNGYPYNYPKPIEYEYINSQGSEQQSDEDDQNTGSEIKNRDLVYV
Sequence of Mu-type opioid receptor (Homo sapiens) (P35372 whole entry): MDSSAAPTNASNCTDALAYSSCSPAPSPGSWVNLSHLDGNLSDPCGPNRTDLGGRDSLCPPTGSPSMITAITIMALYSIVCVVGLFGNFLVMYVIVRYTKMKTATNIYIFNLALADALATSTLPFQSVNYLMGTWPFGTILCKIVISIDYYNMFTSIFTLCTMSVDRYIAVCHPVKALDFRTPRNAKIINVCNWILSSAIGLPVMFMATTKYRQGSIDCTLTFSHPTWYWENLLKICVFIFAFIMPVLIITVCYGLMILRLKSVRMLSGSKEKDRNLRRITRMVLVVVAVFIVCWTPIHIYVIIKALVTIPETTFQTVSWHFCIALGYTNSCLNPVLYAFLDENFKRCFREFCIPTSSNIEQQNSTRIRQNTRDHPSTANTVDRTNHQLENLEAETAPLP

C[C@@H]1CN(c2cc(-c3nn(C)c4ccc(OC5(C)CC5)cc34)ncn2)C[C@H](C)O1 [MLi-2-NC]
residual activity [1, 20]: 100% | inhibition [2]: 13.2% | residual activity [3, 20]: 100% | residual activity [4, 20]: 78% | residual activity [5, 20]: 92% | residual activity [6, 20]: 74% | residual activity [7, 20]: 88% | residual activity [8, 20]: 80% | residual activity [9, 20]: 100% | residual activity [10, 20]: 100% | residual activity [11, 20]: 97% | residual activity [12, 20]: 89% | residual activity [13, 20]: 100% | residual activity [14, 20]: 12%

C[C@@H]1CN(c2cc(-c3n[nH]c4ccc(OC5(C)CC5)cc34)ncn2)C[C@H](C)O1 [MLi-2]
residual activity [1, 21]: 96% | residual activity [3, 21]: 93% | inhibition [15]: 0.659% | residual activity [4, 21]: 90% | residual activity [5, 21]: 67% | residual activity [6, 21]: 43% | inhibition [16]: 23% | inhibition [17]: -2.71% | residual activity [7, 21]: 88% | residual activity [8, 21]: 73% | inhibition [18]: 7% | residual activity [9, 21]: 93% | residual activity [10, 21]: 96% | inhibition [19]: 2.52% | residual activity [11, 21]: 73% | inhibition (Rattus norvegicus): 19% | residual activity [12, 21]: 90% | residual activity [13, 21]: 68% | residual activity [14, 21]: 0%
